Experimental data as given in patent US11161876B2, “Anti-inflammatory nanofibers” (Northwestern University, priority 2015, dated 2021).
* marks the point of attachment. C16 alkyl = CCCCCCCCCCCCCCCC*

Tested on: Rat Bladder Augmentation Model
Assay: Lectin labelling of functional blood vessels in regenerated bladder
Type: in vivo
Conditions: 5W post-augmentation
Method: In order to determine whether blood vessels in regenerating tissue underwent functional angiogenesis, a fluorochrome conjugated tomato lectin was injected into the animals immediately prior to euthanization to label potential angiogenic vessels. […] Magnification 400× (Scale bar, 50 μm).

Substance	functional angiogenesis of newly formed blood vessels (lectin)
C16-VVVAAAEEEHDMNKVLDL (SEQ ID NO:2) ({C16 alkyl}-VVVAAAEEEHDMNKVLDL-NH2) [SIS/AIF-PA2, anti-inflammatory peptide amphiphile, tested dip-coated on small intestinal submucosa (SIS) scaffold]	functional, patent blood vessels
C16-VVVAAAEEEMQMKKVLDS (SEQ ID NO:1) ({C16 alkyl}-VVVAAAEEEMQMKKVLDS-NH2) [SIS/AIF-PA1, anti-inflammatory peptide amphiphile, tested dip-coated on small intestinal submucosa (SIS) scaffold]	functional, patent blood vessels
